Reference: patent publication US20030143731A1, “Use of heterologous transcription factors in gene therapy” (ARIAD Gene Therapeutics, Inc., priority 1995, published 2003)
Blank lines part the entries; values can stand above or below the compound they belong to.

Key:
[1] = system: SEAP target gene in stably transfected HT1080 cells; experiment: Rapamycin-dependent SEAP production in stably transfected cell clone; type: cell-based, human; conditions: stable clone, 100 nM rapamycin, SEAP assay length increased about 50-fold
Text: We generated stable cell lines by sequential transfection of a SEAP target gene and expression vectors for ZFHD1-3FKBP and 1FRB-p65, respectively. […] From this pool, we characterized several individual clones, many of which produced high levels of SEAP in response to rapamycin. […] In an attempt to rigorously quantitate background SEAP production and induction ratio in this clone, we performed a second set of assays in which the length of the SEAP assay was increased by a factor of approximately 50 to detect any SEAP activity in untreated cells. Under these conditions, mock transfected cells produced 47 arbitrary fluorescence units, while the transfected clone produced 54 units in the absence of rapamycin and over 90,000 units at 100 nM rapamycin. […]
To simplify the task of stable transfection, we used a bicistronic expression vector that directs the production of both ZFHD1-3FKBP and 1FRB-p65 through the use of an internal ribosome entry sequence (IRES). […] All 12 clones analyzed were inducible and had little or no basal activity. […]
HT20-6 cells, which contain the pLH-ZHWT×12-IL2-SEAP reporter gene, ZFHD1-3FKBP DNA binding domain and 1FRB-p65(361-550) activation domain stably integrated, were generated by first infecting HT1080L cells with SMTN-ZFHD1-3FKBP-packaged retrovirus and selecting in medium containing […] G418. […] Eight positive clones were analyzed by addition of rapamycin. […]

[2] = system: hGH reporter gene in transplanted transfected HT1080 cells; experiment: Rapamycin-dependent production of hGH in mice bearing transfected HT1080 cells; type: in vivo
Procedure: To prepare transiently transfected HT1080 cells for injection into mice (See below), cells in 100 mm dishes (2×10^6 cells/dish) were transfected by calcium phosphate precipitation for 16 hours (Gatz, C., Kaiser, A. & Wendenburg, R. , 1991,Mol. Gen. Genet. 227, 229-237) with the following DNAs: […] of ZHWT×12-CMV-hGH, […] pCGNN-ZFHD1-3FKBP, […] pCGNN-1FRB-p65(361-550) and […] pUC118. Transfected cells were rinsed 2 times with phosphate buffered saline (PBS) and given fresh medium for 5 hours. To harvest for injection, cells were removed from the dish in Hepes Buffered Saline Solution containing 10 mM EDTA, washed with PBS/0.1% BSA/0.1% glucose and resuspended in the same at a concentration of 2×10^7 cells/ml.
In Vivo Methods: Animals, husbandry, and general procedures. Male nu/nu mice were obtained from Charles River Laboratories (Wilmington, Mass.) and allowed to acclimate for five days prior to experimentation. They were housed under sterile conditions, were allowed free access to sterile food and sterile water throughout the entire experiment, and were handled with sterile techniques throughout.
To transplant transiently transfected cells into mice, 2×10^6 transfected HT1080 cells, were suspended in […] PBS/0.1% BSA/0.1% glucose buffer, and administered into four intramuscular sites (approximately […] per site) on the haunches and flanks of the animals. Control mice received equivalent volume injections of buffer alone.
(§1) Rapamycin was formulated for in vivo administration by dissolution in equal parts of N,N-dimethylacetamide and a 9:1 (v:v) mixture of polyethylene glycol (average molecular weight of 400) and polyoxyethylene sorbitan monooleate. Concentrations of rapamycin, in the completed formulation, were sufficient to allow for in vivo administration of the appropriate dose in a 2.0 ml/kg injection volume. The accuracy of the dosing solutions was confirmed by HPLC analysis prior to intravenous administration into the tail veins. Some control mice, bearing no transfected HT1080 cells, received 10.0 mg/kg rapamycin. In addition, other control mice, bearing transfected cells, received only the rapamycin vehicle.
Blood was collected by either anesthetizing or sacrificing mice via CO2 inhalation. Anesthetized mice were used to collect […] of blood by cardiac puncture. The mice were revived and allowed to recover for subsequent blood collections. Sacrificed mice were immediately exsanguinated. Blood samples were allowed to clot for 24 hours, at 4° C., and sera were collected following centrifugation at 1000×g for 15 minutes. Serum hGH was measured by the Boehringer Mannheim non-isotopic sandwich ELISA (Cat No. 1 585 878). […] Absorbance was read at 405 nm with a 490 nm reference wavelength on a Molecular Devices microtiter plate reader. […]

[3] = system: SEAP target gene in HT1080 cells; experiment: Rapamycin-dependent transcriptional activation in transiently transfected cells (ZFHD1-3FKBP + 1FRB-p65 fusions, SEAP); type: cell-based, human
Procedure: SEAP production was not detected in cells in which one or both of the transcription factor fusion plasmids was omitted, nor was it detected in the absence of added rapamycin. When all components were present, however, SEAP secretion was detectable at rapamycin concentrations as low as 0.5 nM. […] Similar results have been obtained when the same transcription factors were used to drive rapamycin-dependent activation of an hGH reporter gene or a stably integrated version of the SEAP reporter gene made by infection with a retroviral vector. It is difficult to determine the fold activation in response to rapamycin since levels of SEAP secretion in the absence of drug are undetectable, but it is clear that in this system there is at least a 1000-fold enhancement over background levels in the absence of rapamycin.
HT1080 cells (ATCC CCL-121), derived from a human fibrosarcoma, were grown in MEM supplemented with non-essential amino acids and 10% Fetal Bovine Serum. Cells plated in 24-well dishes (Falcon, 6×10^4 cells/well) were transfected using Lipofectamine under conditions recommended by the manufacturer (GIBCO/BRL). A total of 300 ng of the following DNA was transfected into each well: 100 ng ZFHD×12-CMV-SEAP reporter gene, 2.5 ng pCGNN-ZFHD1-3FKBP or other DNA binding domain fusion, 5 ng pCGNN-1FRB-p65(361-550) or other activation domain fusion and 192.5 ng pUC118. In cases where the DNA binding domain or activation domain were omitted an equivalent amount of empty pCGNN expression vector was substituted. Following lipofection (for 5 hours) 500 μl medium containing the indicated amounts of rapamycin was added to each well. After 24 hours, medium was removed and assayed for SEAP activity as described (Spencer et al, Science 262:1019-24, 1993) using a Luminescence Spectrometer (Perkin Elmer) at 350 nm excitation and 450 nm emission. Background SEAP activity, measured from mock-transfected cells, was subtracted from each value.

[4] = Circulating half-life and concentration in mice; type: in vivo
Procedure: as §1
To examine the kinetics of rapamycin control of hGH production, we treated animals with a single dose of rapamycin and then measured hGH levels at different times thereafter. […] The slower decay of serum hGH relative to rapamycin could reflect the presence of higher tissue concentrations of rapamycin in the vicinity of the implanted cells. Alternatively, persistence of hGH production from the engineered cells may be enhanced by the stability of hGH mRNA.
Therefore, to ascertain the ability of this system to elevate and maintain circulating hGH concentrations, we performed an experiment in which animals received multiple doses of rapamycin at 16-hour intervals. This interval corresponds to the time required for hGH levels to peak and then decline approximately half-way. According to this regimen, rapamycin concentration is predicted to approach a steady-state trough concentration of 1.7 μg/ml after two doses. hGH levels should also approach a steady state trough concentration following the second dose. […] In particular, it is apparent that protein production is rapidly terminated upon withdrawal of drug.

[5] = five i.v. 10.0 mg/kg doses at 16-hour intervals

predicted steady-state trough concentration of rapamycin ([4]; after two doses, 10.0 mg/kg i.v. at 16-hour intervals): 1.7 µg/mL | half-life ([4]; nu/nu, mouse, in vivo, iv, in these animals (mice), i.v., read-out: half-life of rapamycin (converted)): 4.6 h
Compound: CO[C@H]1C[C@@H]2CC[C@@H](C)[C@@](O)(O2)C(=O)C(=O)N2CCCC[C@H]2C(=O)O[C@H]([C@H](C)C[C@@H]2CC[C@@H](O)[C@H](OC)C2)CC(=O)[C@H](C)/C=C(\C)[C@@H](O)[C@@H](OC)C(=O)[C@H](C)C[C@H](C)/C=C/C=C/C=C/1C [rapamycin]
SEAP production [1]: over 90,000 arbitrary fluorescence units | half-life of hGH decline after the final rapamycin dose [2, 5]: 6.8 h | time hGH levels remained constant after the final dose [2, 5]: 16 h | half-life of decay of serum hGH concentration from its peak ([2]; single i.v. dose 10.0 mg/kg): approximately 11 hours | time after treatment at which serum hGH remained detectable ([2]; single i.v. dose 10.0 mg/kg): 42 h | enhancement of SEAP over background levels in the absence of rapamycin [3]: ≥ 1000 fold | rapamycin concentration of peak SEAP secretion ([3]; 24 hours): 5 nM | lowest rapamycin concentration at which SEAP secretion was detectable ([3]; all components present, 24 hours): 0.5 nM

Compound: hGH: human growth hormone, reporter gene product secreted by engineered cells
half-life of hGH clearance from the circulation ([4]; in these animals (mice)): less than four
